Source: patent US20260226026A1, “COMPOUND AS CTPS1 INHIBITOR” (Hangzhou Innogate Pharma Co., Ltd., priority 2023, published 2026)
pIC50: −log10 of the molar value.

Columns and labels:
hCTPS1 enzyme = target: T1, hCTPS1 enzyme (Homo sapiens, UniProt P17812); experiment: Inhibition of CTPS1 enzyme activity (ADP-Glo method); assay type: biochemical; settings: hCTPS1, 90 min reaction at 25° C.
T1 sequence (P17812 1-591): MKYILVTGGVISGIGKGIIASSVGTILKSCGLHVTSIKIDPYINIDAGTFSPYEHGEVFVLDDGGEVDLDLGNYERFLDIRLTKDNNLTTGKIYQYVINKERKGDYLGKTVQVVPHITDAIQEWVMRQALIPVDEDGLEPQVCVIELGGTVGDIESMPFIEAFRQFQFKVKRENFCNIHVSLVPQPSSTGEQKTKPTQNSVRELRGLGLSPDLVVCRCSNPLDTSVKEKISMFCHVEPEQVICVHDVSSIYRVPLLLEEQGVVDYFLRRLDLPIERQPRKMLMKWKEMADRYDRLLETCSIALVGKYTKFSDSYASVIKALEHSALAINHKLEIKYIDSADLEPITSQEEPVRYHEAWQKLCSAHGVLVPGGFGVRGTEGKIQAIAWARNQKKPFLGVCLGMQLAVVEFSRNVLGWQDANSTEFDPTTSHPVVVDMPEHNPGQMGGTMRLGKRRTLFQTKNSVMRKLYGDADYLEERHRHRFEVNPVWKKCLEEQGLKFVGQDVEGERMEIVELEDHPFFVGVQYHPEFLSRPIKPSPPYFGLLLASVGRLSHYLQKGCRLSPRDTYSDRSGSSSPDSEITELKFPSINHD
Description: The enzyme activity of CTPS1 was tested using the ADP-Glo method. Compounds were serially diluted in DMSO with 3-fold gradients across ten concentrations. Transfer 0.1 μL of diluted compound to a 384-well plate, centrifuge at 1000 rpm for 1 min. Add 2.5 μL of hCTPS1 enzyme working solution, centrifuge at 1000 rpm for 1 min, and incubate at 25° C. for 10 min. Add 2.5 μL of ATP & UTP solution and incubate at 25° C. for 10 min. Add 5 μL of substrate solution to initiate the reaction and incubate at 25° C. for 90 min. Add 10 μL of ADP-Glo solution to the 384-well plate, centrifuge at 1000 rpm for 1 min, incubate at 25° C. for 40 min, add 20 μL of detection solution, centrifuge at 1000 rpm for 1 min, and incubate at 25° C. for 60 min. […] were read using a BMG microplate reader. Inhibition rate (%) was calculated as follows: Inhibition rate (%)=[(DMSO control well signal−Compound well signal)/(DMSO control well signal−Blank control well signal)]×100%. IC50 values for compounds were analyzed by nonlinear regression in XLFit 5.5.0 software using the formula: Y=Bottom+(Top−Bottom)/(1+10^((LogIC50−X)*HillSlope)) where Y is the inhibition rate and X is the log value of compound concentration.

Jurkat cells = experiment: Inhibition of Jurkat cell proliferation (CellTiter-Glo, 72 hours); assay type: cell-based; settings: Homo sapiens; Jurkat cells, 72 hours, CellTiter-Glo; read-out: Jurkat (IC50)
Description: Select Jurkat cells in good growth condition and digest them with trypsin. Add fresh culture medium, mix thoroughly, and centrifuge at 1000 rpm for 5 minutes. Seed the cells into a 96-well plate at a density of 10,000 cells per well, and incubate overnight in a 37° C. incubator. On the following day, take out of the culture plate and treat the cells with compounds prepared in a five-fold serial dilution. Return the plate to the 37° C. incubator and continue incubation for 72 hours.
After incubation, bring out the cell culture plate and equilibrate it to room temperature. Add 100 μL of CellTiter-Glo reagent to each well, shake in the dark for 2 minutes, and incubate for 10 minutes. Measure the luminescence using an Enspire plate reader. Calculate the inhibition rate using the following formula: Inhibition rate (%)=(1−(RLU_compound−RLU_blank)/(RLU_DMSO−RLU_blank))×100%. Plot the dose-response curve and calculate the IC50 value using XLFit.

in vivo = experiment: in vivo; parameters: species or system SD rats; settings: male, SD, rat, po
Description: Instrumentation: SCIEX Triple Quad 6500+ triple quadrupole liquid chromatography-mass spectrometry system (LC-MS/MS), operating software is Analyst 1.7.2 (Applied Biosystems, USA); ExionLC liquid chromatography system; Microsoft Excel was used for data calculation and processing. Pharmacokinetic parameters were calculated using the statistical moment method with WinNonlin 8.2 software. Key kinetic parameters included Tmax, T1/2, Cmax, AUC0-24 h etc. Column: Synergi 4 μm Fusion-RP 80 Å Luna C18 2 mm*50 mm, 4 μm; Column temperature: 40° C.; Mobile phase A: Water (0.1% formic acid); Mobile phase B: Acetonitrile; Flow rate: 0.8 mL/min; Gradient elution is adopted, the elution gradient is 0.10 min: 15% B; 1.60 min: 95% B; 1.90 min: 95% B; 1.91 min: 15% B; 2.20 min: 15% B. Injection volume: 1 μL.
Animals: 3 male SD rats with a weight range of 200-220 g were purchased and kept in the laboratory of the Experimental Animal Center for 3 days and then used. They were fasted for 12 hours predose and 4 hours after dosing. Drinking water was free during the test. After the rats were gavage, blood samples were taken according to the established time point.
Solvent: 0.4% ethanol+0.4% Tween80+99.2% (0.5% methylcellulose M450). Preparation of the solution for intragastric administration: Compounds were accurately weighed and added to the solvent. The mixture was then subjected to vortex mixing and sonication until a homogeneous suspension was achieved, thereby preparing medicinal solutions of the desired concentrations.
Compound samples: Typically, multiple structurally analogous compounds (with molecular weights differing by more than 2 units) were accurately weighed and administered together (cassette PK). This approach allows for the simultaneous screening of multiple compounds and comparison of their oral absorption rates. Single compound administration was also employed to study the pharmacokinetics of drug samples in rats.
After intragastric administration, blood was collected from the jugular vein at 0.25, 0.5, 1, 2, 4, 8, 10 and 24 hours. Transfer 20 μL of plasma sample (for blank samples and internal standard blank samples, add 20 μL of blank plasma) to a 1.5 mL centrifuge tube, add 200 μL of internal standard solution (50% methanol in acetonitrile (concentration 100 ng/mL)) (for Double blank samples, add 200 μL of 50% methanol in acetonitrile solution). Vortex the samples for 5 minutes, then centrifuge at 14000 rpm and 4° C. for 5 minutes. Transfer 80 μL and add to 80 μL of water, mix uniformly, and submit for LC-MS/MS analysis.
The compounds were accurately weighed to prepare different concentrations, and quantitative analysis on mass spectrometry was performed to establish a standard curve, and then the concentration of the above-mentioned compound in the plasma was tested to obtain its concentration at different time points. All measurement data were collected and processed by relevant software, and the statistical moment method was used to calculate the pharmacokinetic parameters (mainly including kinetic parameters Tmax, T1/2, Cmax, AUC0-24 h etc).

CCOc1cncc(-c2ccc(NC(=O)C3(c4ccnc(NS(=O)(=O)C5CC5)n4)CCC(=C(F)C4COC4)CC3)nc2)n1 (stereo not drawn) [Compound 50]
pIC50 (hCTPS1 enzyme): > 7.60 | pIC50 (Jurkat cells): > 7.82 | AUC(0-t) (in vivo; 2 mg/kg): 2160 ng·h/mL | Cmax (in vivo; 2 mg/kg): 1020 ng/mL | Tmax (in vivo; 2 mg/kg): 0.25 h | half-life (in vivo; 2 mg/kg): 1.13 h

CCOc1cncc(-c2ccc(NC(=O)C3(c4ccnc(NS(=O)(=O)C5CC5)n4)CCC(=C(F)C4CCOCC4)CC3)nc2)n1 (stereo not drawn) [Compound 52]
pIC50 (hCTPS1 enzyme): > 7.60 | pIC50 (Jurkat cells): > 7.82 | AUC(0-t) (in vivo; 1.5 mg/kg): 7640 ng·h/mL | Cmax (in vivo; 1.5 mg/kg): 1210 ng/mL | Tmax (in vivo; 1.5 mg/kg): 2 h | half-life (in vivo; 1.5 mg/kg): 2.01 h

CCOc1cncc(-c2ccc(NC(=O)C3(c4ccnc(NS(=O)(=O)C5CC5)n4)CCC(=CCC(C)(C)O)CC3)nc2)n1 (stereo not drawn) [Compound 58]
pIC50 (hCTPS1 enzyme): > 7.60 | pIC50 (Jurkat cells): > 7.82 | AUC(0-t) (in vivo; 3 mg/kg): 25100 ng·h/mL | Cmax (in vivo; 3 mg/kg): 4540 ng/mL | Tmax (in vivo; 3 mg/kg): 2.17 h | half-life (in vivo; 3 mg/kg): 2.53 h

CCOc1cncc(-c2ccc(NC(=O)C3(c4ccnc(NS(=O)(=O)C5CC5)n4)CCC(=CCC4COC4)CC3)nc2)n1 (stereo not drawn) [Compound 63]
pIC50 (hCTPS1 enzyme): > 7.60 | pIC50 (Jurkat cells): > 7.82 | AUC(0-t) (in vivo; 3 mg/kg): 37600 ng·h/mL | Cmax (in vivo; 3 mg/kg): 4820 ng/mL | Tmax (in vivo; 3 mg/kg): 2.33 h | half-life (in vivo; 3 mg/kg): 3.03 h

CCOc1cncc(-c2ccc(NC(=O)C3(c4cncc(NS(=O)(=O)C5CC5)n4)CCC(=C(F)F)CC3)nc2)n1 (stereo not drawn) [Compound 68]
pIC50 (hCTPS1 enzyme): > 7.60 | pIC50 (Jurkat cells): > 7.82 | AUC(0-t) (in vivo; 3 mg/kg): 40800 ng·h/mL | Cmax (in vivo; 3 mg/kg): 6810 ng/mL | Tmax (in vivo; 3 mg/kg): 2.17 h | half-life (in vivo; 3 mg/kg): 1.83 h

CCOc1cncc(-c2ccc(NC(=O)C3(c4ccnc(NS(=O)(=O)C5CC5)n4)CCC(=C(F)CC4COC4)CC3)nc2)n1 (stereo not drawn) [Compound 69]
pIC50 (hCTPS1 enzyme): > 7.30 | pIC50 (Jurkat cells): > 7.82 | AUC(0-t) (in vivo; 2 mg/kg): 11300 ng·h/mL | Cmax (in vivo; 2 mg/kg): 2330 ng/mL | Tmax (in vivo; 2 mg/kg): 1.83 h | half-life (in vivo; 2 mg/kg): 1.89 h
